Assay results as given in PubChem BioAssay AID652285 (Sanford-Burnham Center for Chemical Genomics, 2013).
Where “and” joins values, the source holds several entries; their conditions need not be identical. Equal values may be shown once. Calls of active or inactive are those of the source.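 The calls were made as follows: active = IC50 at or below 60 µM; inactive = the rest.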

Target: COP9 signalosome complex subunit 5 (Homo sapiens) (UniProt Q92905)
Experiment: Csn5 deneddylase inhibition by analogues, SAR follow-up, selectivity assay for RPN11 inhibitor project, biochemical, fluorescence polarization, Cul-Nedd8-OG substrate (AID 652285)
Details: Csn5 deneddylation of SCF-Nedd8-OG

COP9 signalosome complex subunit 5 (Homo sapiens), sequence (Q92905 whole entry, looked up, one chain of several): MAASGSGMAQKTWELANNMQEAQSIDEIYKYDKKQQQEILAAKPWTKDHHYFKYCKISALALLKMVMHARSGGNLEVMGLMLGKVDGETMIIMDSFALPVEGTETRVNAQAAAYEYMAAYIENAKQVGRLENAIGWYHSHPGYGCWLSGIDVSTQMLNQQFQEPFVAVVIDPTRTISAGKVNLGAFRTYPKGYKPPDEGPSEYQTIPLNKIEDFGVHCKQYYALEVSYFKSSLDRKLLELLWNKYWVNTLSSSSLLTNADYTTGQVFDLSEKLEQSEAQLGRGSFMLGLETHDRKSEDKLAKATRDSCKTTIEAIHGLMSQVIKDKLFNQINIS

Compound `O=C(Sc1cccc2cccnc12)c1ccc(F)c(F)c1` has an IC50 of 5.36 µM.
`COC(=O)[C@H](C)N(C)C(=O)c1cnc2c(SSc3cccc4cc(C(=O)N(C)[C@@H](C)C(=O)OC)cnc34)cccc2c1` gave an IC50 of 8.63 µM.
With `O=C(Sc1cccc2cccnc12)c1ccccc1` the IC50 was 4.77 µM.
For `Cc1ccc(C(=O)Sc2cccc3cccnc23)cc1`, the IC50 was > 95 µM (inactive).
With `O=C(Sc1cccc2cccnc12)c1cccc(Cl)c1` the IC50 was 1.91 µM.
Compound `CC[C@@H](C)[C@H](NC(=O)c1cnc2c(SSc3cccc4cc(C(=O)N[C@H](C(=O)O)[C@H](C)CC)cnc34)cccc2c1)C(=O)O` has an IC50 of 5.76 µM.
In the case of `CC(C)(C)OC(=O)CCNC(=O)c1cnc2c(SSc3cccc4cc(C(=O)NCCC(=O)OC(C)(C)C)cnc34)cccc2c1`, the IC50 is reported as 34.7 µM.
`O=C(Sc1cccc2cccnc12)c1ccccc1OC(F)(F)F` showed an IC50 of 9.48 µM.
In the case of `O=C(Sc1cccc2cccnc12)c1ccc2c(c1)OCO2`, the IC50 is reported as 18.3 µM.
For `O=C(Sc1cccc2cccnc12)c1cccc2ccccc12`, the IC50 was 8.9 µM.
`O=C(Sc1cccc2cccnc12)c1ccccc1Cl` was tested, and the IC50 was 14.1 µM.
Compound `COC(=O)[C@H](CC(C)C)NC(=O)c1cnc2c(SSc3cccc4cc(C(=O)N[C@@H](CC(C)C)C(=O)OC)cnc34)cccc2c1` has an IC50 of 12.7 µM.
`COC(=O)[C@H](C)NC(=O)c1ccnc2c(SSc3cccc4c(C(=O)N[C@@H](C)C(=O)OC)ccnc34)cccc12` showed an IC50 of 16.8 µM.
`O=C(Sc1cccc2cccnc12)c1cccc(C(F)(F)F)c1` was tested, and the IC50 was > 95 µM (inactive).
In the case of `O=C(Sc1cccc2cccnc12)c1c(Cl)cccc1Cl`, the IC50 is reported as 3.95 µM.
For `O=C(Sc1cccc2cccnc12)c1ccc(F)cc1`, the IC50 was 4.3 µM.
`Cc1ccccc1C(=O)Sc1cccc2cccnc12` was tested, and the IC50 was 20.8 µM.
Work on `O=C(Sc1cccc2cccnc12)c1ccc([N+](=O)[O-])cc1` yielded an IC50 of 20.2 µM.
For `COc1ccc(C(=O)Sc2cccc3cccnc23)cc1OC`, the IC50 was 8.81 µM.
For `COC(=O)[C@@H](NC(=O)c1cnc2c(SSc3cccc4cc(C(=O)N[C@H](C(=O)OC)C(C)C)cnc34)cccc2c1)C(C)C`, the IC50 was 7.62 µM.
For `O=C(Sc1cccc2cccnc12)c1ccccc1F`, the IC50 was > 95 µM (inactive).
Work on `COC(=O)[C@H](CO)NC(=O)c1cnc2c(SSc3cccc4cc(C(=O)N[C@@H](CO)C(=O)OC)cnc34)cccc2c1` yielded an IC50 of 42.7 µM.
`N#Cc1cccc(C(=O)Sc2cccc3cccnc23)c1` was tested, and the IC50 was “inactive”.
`O=C(Sc1cccc2cccnc12)c1ccc(C(F)(F)F)cc1` gave an IC50 of 6.26 µM.
In the case of `O=C(O)[C@@H]1CCCN1C(=O)c1cnc2c(SSc3cccc4cc(C(=O)N5CCC[C@H]5C(=O)O)cnc34)cccc2c1`, the IC50 is reported as 5.4 µM.
Compound `C[C@@H](C(=O)O)N(C)C(=O)c1cnc2c(SSc3cccc4cc(C(=O)N(C)[C@@H](C)C(=O)O)cnc34)cccc2c1` has an IC50 of 16.6 µM.
With `COc1ccccc1C(=O)Sc1cccc2cccnc12` the IC50 was 14.2 µM and 8.37 µM.
For `N#Cc1ccc(C(=O)Sc2cccc3cccnc23)cc1`, the IC50 was > 95 µM (inactive).
`CC(C)C[C@H](NC(=O)c1cnc2c(SSc3cccc4cc(C(=O)N[C@@H](CC(C)C)C(=O)O)cnc34)cccc2c1)C(=O)O` showed an IC50 of 9.33 µM.
Work on `COc1ccc(C(=O)Sc2cccc3cccnc23)cc1` yielded an IC50 of 9.61 µM.
`COC(=O)[C@H](C)NC(=O)c1cnc2c(SSc3cccc4cc(C(=O)N[C@@H](C)C(=O)OC)cnc34)cccc2c1` was tested, and the IC50 was 15.4 µM.
`CCOc1ccccc1C(=O)Sc1cccc2cccnc12` was tested, and the IC50 was 9.27 µM and 34.4 µM.
`O=C(Sc1cccc2cccnc12)c1ccccc1I` gave an IC50 of 11.2 µM.
Work on `CCCc1ccc(C(=O)Sc2cccc3cccnc23)cc1` yielded an IC50 of 10.7 µM.
For `O=C(Sc1cccc2cccnc12)c1ccccc1[N+](=O)[O-]`, the IC50 was 8.24 µM.
In the case of `O=C(Sc1cccc2cccnc12)c1ccc(F)cc1F`, the IC50 is reported as “inactive”.
`O=C(Sc1cccc2cccnc12)c1ccccc1Br` gave an IC50 of 5.44 µM.
In the case of `COc1ccc(C(=O)Sc2cccc3cccnc23)cc1F`, the IC50 is reported as 6.5 µM.
